{"source": "patent US9579325B2", "about": "“Modulators of TNF-α signaling” (Genzyme Corporation, priority 2000, dated 2017)", "data": [{"tested_on": "L929 cells", "test": "TNF High Throughput Screen (TNF-α driven apoptosis assay)", "assay_type": "cell-based, mouse", "settings": "Mus musculus, compound at 1 μM, human TNF-α + actinomycin D, read-out: TNFα % Inh. @ 1 μM", "text": "(§1) Description of Table V: The results shown in Table V were obtained using the TNF-α assays performed as described in the protocols entitled “Method for TNF High Throughput Screen” and “Method for VCAM High Throughput Screen”, which are detailed below. These assays measure a cellular response to TNF-α stimulation, and the data published in the table are expressed as percentage inhibitions. Percentage inhibition is computed on a scale of 0 to 100% where 0 percent inhibition means the compound has no effect in the assay (the response is indistinguishable from TNF-α treatment alone), and 100% inhibition means that when the compound is present at the stated concentration, the response in the assay is the same as if TNF-α were not added. These two assays measure two different outcomes of TNF-α treatment, cell death and Vascular Cell Adhesion Molecule (VCAM) expression, and capture two of TNF-α's many biological effects. TNF-α induced apoptosis is a mechanism by which TNF-α production during immune/inflammatory responses can lead to direct cellular and tissue damage. TNF-α VCAM expression in endothelial cells is a response that allows leukocytes to leave the blood and enter a site of immune/inflammatory response. Both of these activities could lead to pathology in immune/inflammatory diseases. In the first column of the table, the percentage inhibition of the TNF-α driven apoptosis assay when the compounds are tested at 1 μM concentration is presented. The second column in the table lists the IC50 for the compound, a standard measure using a dilution series in the assay, and fitting a sigmoidal curve to the resulting dose-response curve. The IC50 is the concentration (derived analytically from the sigmoidal function) at which the compound would inhibit 50% of the response in the assay. The third and fourth column list the corresponding analysis for the TNF-α driven VCAM assay. In Table VI, data corresponding to the data in column 1 of Table V is shown, with human cells replacing the mouse cells used in the high throughput screen. […] As a consequence, the compounds will have use in treating more than one TNF-α mediated condition, and may be selected according to the manner in which the condition manifests. This corresponds to the use of these compounds in the treatment of human disease.\n(§2) TNF High Throughput Screen.\n(§3) • 1. Plate 4×10^4 L929 cells in 100 μl of complete EMEM in Costar 96 well plates in PM. • 2. The next day, pretreat with compound, inhibitor and control vehicle for 2 hours. • 3. After 2 hours pretreatment, add 10 μl 5 ng/ml human TNF-α and actinomycin D (40 μg/ml final concentration). • 4. Incubate overnight. • 5. In AM, remove supernatant. • 6. Wash on a plate washer (0.9% NaCl). • 7. Add 100 μl Crystal Violet 0.1% in 20% ETOH. • 8. Incubate at RT for 10 minutes. • 9. Wash on plate washer. • 10. Air dry wells at 37° C. • 11. Add 100 μl of methanol to each well. • 12. Shake plates on orbital shaker and read at 595 nm on plate reader. VCAM High Throughput Screen: Protocol: • 1. Plate Primary human umbilical vein endothelial cells at 1.8×10^4 cells/well in a 96-well tissue culture plate. • 2. Return Plates to 37° C. incubator for 48-72 hours before assay. • 3. On assay day, aspirate wells and add 1804, of endothelial growth cell medium (EGM) to each well. • 4. Add Compound to each well. • 5. Shake plates for 3 minutes. • 6. Incubate plate for 1 hour at 37° C. • 7. Add Tumor Necrosis Factor (TNF) at 1.0 ng/ml final concentration. • 8. Shake plates for 3 minutes. • 9. Incubate plate for 2 hours at 37° C. • 10. Remove plate from incubator and wash plate 3 times with phosphate buffered saline (PBS) using a plate washer. • 11. Add anti-VCAM antibody at 0.5 μg/ml final concentration. • 12. Incubate at 4° C. overnight. • 13. Wash 3 times with PBS on plate washer. • 14. Add goat anti-mouse horseradish peroxidase conjugate. • 15. Incubate at room temperature for one hour. • 16. Wash 3 times with PBS on plate washer. • 17. […]", "units": {"inhibition at 1 µM": "%"}, "values": [{"smiles": "CCCCc1ccc(C(=O)N(CCc2c[nH]cn2)C(C(=O)NCCC(c2ccccc2)c2ccccc2)c2ccccc2)cc1", "note": "(stereo not shown) [Compound 65]", "inhibition at 1 µM": 52}, {"smiles": "N#Cc1cccc(C(C(=O)NCCC(c2ccccc2)c2ccccc2)N(CCc2c[nH]cn2)C(=O)c2cccc3ccccc23)c1", "note": "(stereo not shown) [Compound 68]", "inhibition at 1 µM": 57}, {"smiles": "N#Cc1cccc(C(C(=O)NC(c2ccccc2)c2ccccc2)N(CCc2c[nH]cn2)C(=O)C(O)c2ccccc2)c1", "note": "(stereo not shown) [Compound 87]", "inhibition at 1 µM": 50}, {"smiles": "COc1ccc(CCNC(=O)C(c2cccc(C#N)c2)N(CCc2c[nH]cn2)C(=O)c2cnc3ccccc3n2)cc1", "note": "(stereo not shown) [Compound 74]", "inhibition at 1 µM": 55}, {"smiles": "O=C(c1ccccc1)c1ccccc1C(=O)N(CCc1c[nH]cn1)C(C(=O)NCC(c1ccccc1)c1ccccc1)C(c1ccccc1)c1ccccc1", "note": "(stereo not shown) [Compound 62]", "inhibition at 1 µM": 59}, {"smiles": "COc1ccc(CCNC(=O)C(c2cccc(C#N)c2)N(CCc2c[nH]cn2)C(=O)Cc2c[nH]c3ccc(Br)cc23)cc1", "note": "(stereo not shown) [Compound 78]", "inhibition at 1 µM": 60}, {"smiles": "N#Cc1cccc(C(C(=O)NCC(c2ccccc2)c2ccccc2)N(CCc2c[nH]cn2)C(=O)C(O)Cc2c[nH]c3ccccc23)c1", "note": "(stereo not shown) [Compound 82]", "inhibition at 1 µM": 55}, {"smiles": "N#Cc1cccc(C(C(=O)NCC(c2ccccc2)c2ccccc2)N(CCc2c[nH]cn2)C(=O)Cc2c[nH]c3ccc(Br)cc23)c1", "note": "(stereo not shown) [Compound 85]", "inhibition at 1 µM": 52}, {"smiles": "N#Cc1cccc(C(C(=O)NCCC(c2ccccc2)c2ccccc2)N(CCc2c[nH]cn2)C(=O)c2ccccc2C(=O)c2ccc(Cl)cc2)c1", "note": "(stereo not shown) [Compound 91]", "inhibition at 1 µM": 71}, {"smiles": "COc1ccc(CCNC(=O)C(c2cccc(C#N)c2)N(CCc2c[nH]cn2)C(=O)Cc2c(C)[nH]c3ccccc23)cc1", "note": "(stereo not shown) [Compound 75]", "inhibition at 1 µM": 67}, {"smiles": "O=C(c1ccc(Cl)cc1)c1ccccc1C(=O)N(CCCn1ccnc1)C(C(=O)NCC(c1ccccc1)c1ccccc1)c1ccccc1", "note": "(stereo not shown) [Compound 61]", "inhibition at 1 µM": 51}, {"smiles": "COc1ccc(CCNC(=O)C(c2cccc(C#N)c2)N(CCc2c[nH]cn2)C(=O)CCC2CCCC2)cc1", "note": "(stereo not shown) [Compound 72]", "inhibition at 1 µM": 57}, {"smiles": "COc1cccc(C(=O)N(CCc2c[nH]cn2)C(C(=O)NCC(c2ccccc2)c2ccccc2)c2cccc(C#N)c2)c1", "note": "(stereo not shown) [Compound 86]", "inhibition at 1 µM": 53}, {"smiles": "N#Cc1cccc(C(C(=O)NCC(c2ccccc2)c2ccccc2)N(CCc2c[nH]cn2)C(=O)CCCCc2ccccc2)c1", "note": "(stereo not shown) [Compound 60]", "inhibition at 1 µM": 50}]}, {"tested_on": "L929 cells", "test": "TNF High Throughput Screen (TNF-α driven apoptosis assay)", "assay_type": "cell-based, mouse", "settings": "Mus musculus, human TNF-α + actinomycin D, read-out: TNFα IC50", "text": "as §1, §2, §3", "units": {"IC50": "nM"}, "values": [{"smiles": "[N-]=[N+]=Nc1cccc(C(C(=O)NCC(c2ccccc2)c2ccccc2)N(CCc2c[nH]cn2)C(=O)c2ccccc2C(=O)c2ccccc2)c1", "note": "(stereo not shown) [Compound 40]", "IC50": 1740}, {"smiles": "Cc1ccc(C(C(=O)NCC(c2ccccc2)c2ccccc2)N(CCc2c[nH]cn2)C(=O)c2ccccc2C(=O)c2ccccc2)cc1", "note": "(stereo not shown) [Compound 8]", "IC50": 1620}, {"smiles": "O=C(c1ccccc1)c1ccccc1C(=O)N(CCc1c[nH]cn1)C(C(=O)NCC(c1ccccc1)c1ccccc1)c1cccc(Cl)c1", "note": "(stereo not shown) [Compound 16]", "IC50": 1320}, {"smiles": "N#Cc1ccc(C(C(=O)NCC(c2ccccc2)c2ccccc2)N(CCc2c[nH]cn2)C(=O)c2ccccc2C(=O)c2ccccc2)cc1", "note": "(stereo not shown) [Compound 51]", "IC50": 3560}, {"smiles": "O=C(c1ccccc1)c1ccccc1C(=O)N(CCc1c[nH]cn1)C(Cc1cccc(F)c1)C(=O)NCC(c1ccccc1)c1ccccc1", "note": "(stereo not shown) [Compound 37]", "IC50": 2360}, {"smiles": "N#Cc1cccc(C(C(=O)NCC(c2ccccc2)c2ccccc2)N(CCN2CCOCC2)C(=O)c2ccccc2C(=O)c2ccccc2)c1", "note": "(stereo not shown) [Compound 11]", "IC50": 2890}, {"smiles": "N#Cc1cccc(C(C(=O)NCC(c2ccccc2)c2ccccc2)N(CCc2c[nH]cn2)C(=O)c2ccccc2COc2ccccc2)c1", "note": "(stereo not shown) [Compound 53]", "IC50": 7130}, {"smiles": "O=C(c1ccccc1)c1ccccc1C(=O)N(CCc1c[nH]cn1)C(Cc1cccc(Cl)c1)C(=O)NCC(c1ccccc1)c1ccccc1", "note": "(stereo not shown) [Compound 31]", "IC50": 3350}, {"smiles": "N#Cc1cccc(C(C(=O)NCC(c2ccccc2)c2ccccc2)N(CCc2c[nH]cn2)C(=O)c2ccccc2C(=O)c2ccc(Cl)cc2)c1", "note": "(stereo not shown) [Compound 20]", "IC50": 299}, {"smiles": "COc1ccc(CCNC(=O)C(c2cccc(C#N)c2)N(CCc2c[nH]cn2)C(=O)c2ccccc2C(=O)c2ccccc2)cc1", "note": "(stereo not shown) [Compound 18]", "IC50": 2680}, {"smiles": "CSc1ccc(C(C(=O)NCC(c2ccccc2)c2ccccc2)N(CCc2c[nH]cn2)C(=O)c2ccccc2C(=O)c2ccccc2)cc1", "note": "(stereo not shown) [Compound 12]", "IC50": 5150}, {"smiles": "Cc1ccccc1C(C(=O)NCC(c1ccccc1)c1ccccc1)N(CCc1c[nH]cn1)C(=O)c1ccccc1C(=O)c1ccccc1", "note": "(stereo not shown) [Compound 6]", "IC50": 1060}, {"smiles": "O=C(c1ccccc1)c1ccccc1C(=O)N(CCc1c[nH]cn1)C(Cc1ccc(Cl)cc1)C(=O)NCC(c1ccccc1)c1ccccc1", "note": "(stereo not shown) [Compound 32]", "IC50": 2330}, {"smiles": "O=C(c1ccccc1)c1ccccc1C(=O)N(CCc1c[nH]cn1)C(Cc1cccc(C(F)(F)F)c1)C(=O)NCC(c1ccccc1)c1ccccc1", "note": "(stereo not shown) [Compound 28]", "IC50": 5270}, {"smiles": "N#Cc1cccc(C(C(=O)NCC(c2ccccc2)c2ccccn2)N(CCc2c[nH]cn2)C(=O)c2ccccc2C(=O)c2ccccc2)c1", "note": "(stereo not shown) [Compound 39]", "IC50": 1320}, {"smiles": "N#Cc1cccc(C(C(=O)NCC(c2ccccc2)c2ccccc2)N(CCc2c[nH]cn2)C(=O)c2ccccc2C(=O)OCc2ccccc2)c1", "note": "(stereo not shown) [Compound 55]", "IC50": 7640}, {"smiles": "O=C(c1ccccc1)c1ccccc1C(=O)N(CCc1c[nH]cn1)C(C(=O)NCC(c1ccccc1)c1ccccc1)c1ccccc1", "note": "(stereo not shown) [Compound 5, 2-Benzoyl-N-[(2,2-diphenyl-ethylcarbamoyl)-phenyl-methyl]-N-[2-(1H-imidazol-4-yl)-ethyl]-benzamide]", "IC50": 872}, {"smiles": "Cc1nn(-c2nc(N)nc(-c3ccccn3)n2)c(C)c1Cc1ccccc1", "note": "[Compound 142, 4-(4-Benzyl-3,5-dimethyl-pyrazol-1-yl)-6-pyridin-2-yl-[1,3,5]triazin-2-ylamine]", "IC50": 152}, {"smiles": "O=C(c1ccccc1)c1ccccc1C(=O)N(CCc1c[nH]cn1)C(C(=O)NCC(c1ccccc1)c1ccccc1)c1cccc(C(F)(F)F)c1", "note": "(stereo not shown) [Compound 17]", "IC50": 1500}, {"smiles": "N#Cc1cccc(C(C(=O)NCCc2ccccc2)N(CCc2c[nH]cn2)C(=O)c2ccccc2C(=O)c2ccccc2)c1", "note": "(stereo not shown) [Compound 1]", "IC50": 2640}, {"smiles": "N#Cc1cccc(C(C(=O)NCCC(c2ccccc2)c2ccccc2)N(CCc2c[nH]cn2)C(=O)c2ccccc2C(=O)c2ccccc2)c1", "note": "(stereo not shown) [Compound 4]", "IC50": 941}, {"smiles": "Cc1nn(-c2ncnc(-c3ccccn3)n2)c(C)c1Sc1ccc(Cl)cc1", "note": "[Compound 141, 2-[4-(4-Chloro-phenylsulfanyl)-3,5-dimethyl-pyrazol-1-yl]-4-pyridin-2-yl-[1,3,5]triazine]", "IC50": 1.1}, {"smiles": "N#Cc1cccc(C(C(=O)NC(Cc2ccccc2)c2ccccc2)N(CCc2c[nH]cn2)C(=O)c2ccccc2C(=O)c2ccccc2)c1", "note": "(stereo not shown) [Compound 3]", "IC50": 1290}, {"smiles": "CC1=NN(c2nccc(-c3ccccn3)n2)C(=O)C1Sc1ccc(Cl)cc1", "note": "(stereo not shown) [Compound 147, 4-(4-Chloro-phenylsulfanyl)-5-methyl-2-(4-pyridin-2-yl-pyrimidin-2-yl)-2,4-dihydro-pyrazol-3-one]", "IC50": 734}]}, {"tested_on": "L929 cells", "test": "TNF High Throughput Screen (TNF-α driven apoptosis assay)", "assay_type": "cell-based, mouse", "settings": "human TNF-α + actinomycin D, read-out: TNFα IC50", "text": "as §1, §2, §3", "units": {"IC50": "nM"}, "values": [{"smiles": "O=C(c1ccccc1)c1ccccc1C(=O)N(CCc1c[nH]cn1)[C@H](Cc1ccccc1)C(=O)NCC(c1ccccc1)c1ccccc1", "note": "[Compound 47, 2-Benzoyl-N-[(1′R)-1′(2,2′-diphenyl-ethylcarbamoyl)-2′-phenyl-ethyl]-N-[2-(1H-imidazol-4-yl)-ethyl]-benzamide]", "IC50": 5580}, {"smiles": "Cc1nn(-c2nc(N)nc(-c3ccccn3)n2)c(C)c1CCCc1ccccc1", "note": "[Compound 144, 4-[3,5-Dimethyl-4-(3-phenyl-propyl)-pyrazol-1-yl]-6-pyridin-2-yl-[1,3,5]triazin-2-lyamine]", "IC50": 15}]}]}
